Reference: patent US20100311741A1, “Bicyclosulfonyl Acid (BCSA) Compounds and Their Use as Therapeutic Agents” (INHIBOX LTD., priority 2007, published 2010)

What was measured:
[1] = system: HDAC (HeLa cell extract); assay: Selectivity assay: HDAC activity, fluorescent assay (Fluor de Lys); format: biochemical; conditions: single concentration @100 (μM)
Method: Alternatively, the activity of the compounds as HDAC inhibitors was determined using a commercially available fluorescent assay kit (Fluor de Lys™, BioMol Research Labs, Inc., Plymouth Meeting, USA). HeLa extract was incubated for 1 hour at 37° C. in assay buffer (25 mM HEPES, 137 mM NaCl, 2.7 mM KCl, 1 mM MgCl2, pH 8.0) with 15 μM acetylated substrate in the presence of test compound (HDAC inhibitor). The extent of deacetylation was determined by the addition of 50 μL of a 1-in-500 dilution of Developer, and subsequent measurement of the fluorescence (excitation 355 nm, emission 460 nm), according to the instructions provided with the kit.
The HeLa cell extract was made from HeLa cells (ATCC Ref. No. CCL-2) by freeze-thawing three times in 60 mM Tris.HCl, pH 8.0, 450 mM NaCl, 30% glycerol. Two cell volumes of extraction buffer were used, and particulate material was centrifuged out (20,800 g, 4° C., 10 minutes). The supernatant extract having deacetylase activity was aliquoted and frozen for storage.
Percent activity (% activity) for each test compound was calculated as:
% activity={(S^C−B)/(S^o−B)}×100
wherein S^C denotes signal measured in the presence of enzyme and the compound being tested, S^o denotes signal measured in the presence of enzyme but in the absence of the compound being tested, and B denotes the background signal measured in the absence of both enzyme and compound being tested. The IC50 corresponds to the concentration which achieves 50% activity.

[2] = molecular target: T1, MMP-1 (Homo sapiens, UniProt P03956); assay: Matrix metalloprotease panel, single concentration; format: biochemical
T1 sequence (P03956 100-469): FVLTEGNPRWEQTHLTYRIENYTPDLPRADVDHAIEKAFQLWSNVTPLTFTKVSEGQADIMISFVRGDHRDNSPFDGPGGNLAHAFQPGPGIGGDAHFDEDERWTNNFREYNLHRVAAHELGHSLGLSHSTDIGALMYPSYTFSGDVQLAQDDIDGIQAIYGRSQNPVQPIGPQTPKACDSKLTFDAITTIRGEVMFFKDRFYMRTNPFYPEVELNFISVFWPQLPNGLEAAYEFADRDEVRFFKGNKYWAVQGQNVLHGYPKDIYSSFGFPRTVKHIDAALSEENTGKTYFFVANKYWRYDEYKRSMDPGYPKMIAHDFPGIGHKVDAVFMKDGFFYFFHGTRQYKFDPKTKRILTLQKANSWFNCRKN
Method: (§1) Several compounds were tested at a single concentration against a panel of matrix metalloproteases including angiotensin converting enzyme (ACE) and the percentage inhibition determined.

[3] = molecular target: MMP-10 (Homo sapiens, UniProt P09238); assay: Matrix metalloprotease panel, single concentration; format: biochemical
Chain of MMP-10 (P09238 99-476, species assumed): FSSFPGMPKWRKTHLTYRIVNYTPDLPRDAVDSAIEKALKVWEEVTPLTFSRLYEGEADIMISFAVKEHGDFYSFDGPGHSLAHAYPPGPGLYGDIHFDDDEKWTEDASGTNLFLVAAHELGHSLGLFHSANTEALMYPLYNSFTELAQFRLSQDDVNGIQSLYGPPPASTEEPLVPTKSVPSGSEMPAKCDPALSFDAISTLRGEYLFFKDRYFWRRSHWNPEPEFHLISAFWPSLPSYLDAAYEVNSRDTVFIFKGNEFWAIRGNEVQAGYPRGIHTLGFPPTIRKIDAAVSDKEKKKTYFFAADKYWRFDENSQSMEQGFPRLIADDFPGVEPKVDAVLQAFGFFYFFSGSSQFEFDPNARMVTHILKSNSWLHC
Method: as §1

[4] = molecular target: MMP-12 (Homo sapiens, UniProt P39900); assay: Matrix metalloprotease panel, single concentration; format: biochemical
Chain of MMP-12 (P39900 106-470, species assumed): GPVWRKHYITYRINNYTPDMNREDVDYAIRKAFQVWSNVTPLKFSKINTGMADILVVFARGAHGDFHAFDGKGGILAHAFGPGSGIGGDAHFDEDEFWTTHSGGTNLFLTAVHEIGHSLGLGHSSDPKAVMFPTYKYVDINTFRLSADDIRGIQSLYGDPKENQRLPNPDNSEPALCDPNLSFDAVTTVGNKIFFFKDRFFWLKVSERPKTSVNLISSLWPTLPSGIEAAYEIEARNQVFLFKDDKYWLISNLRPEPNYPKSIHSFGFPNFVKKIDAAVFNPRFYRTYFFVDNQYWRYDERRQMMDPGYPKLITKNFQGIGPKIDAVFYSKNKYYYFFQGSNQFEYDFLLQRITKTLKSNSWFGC
Method: as §1

[5] = molecular target: MMP-13 (Homo sapiens, UniProt P45452); assay: Matrix metalloprotease panel, single concentration; format: biochemical
Method: as §1

[6] = molecular target: MMP-14 (Homo sapiens, UniProt P50281); assay: Matrix metalloprotease panel, single concentration; format: biochemical
Method: as §1

[7] = molecular target: T2, MMP-2 (Homo sapiens, UniProt P08253); assay: Matrix metalloprotease panel, single concentration; format: biochemical
T2 sequence (P08253 110-660): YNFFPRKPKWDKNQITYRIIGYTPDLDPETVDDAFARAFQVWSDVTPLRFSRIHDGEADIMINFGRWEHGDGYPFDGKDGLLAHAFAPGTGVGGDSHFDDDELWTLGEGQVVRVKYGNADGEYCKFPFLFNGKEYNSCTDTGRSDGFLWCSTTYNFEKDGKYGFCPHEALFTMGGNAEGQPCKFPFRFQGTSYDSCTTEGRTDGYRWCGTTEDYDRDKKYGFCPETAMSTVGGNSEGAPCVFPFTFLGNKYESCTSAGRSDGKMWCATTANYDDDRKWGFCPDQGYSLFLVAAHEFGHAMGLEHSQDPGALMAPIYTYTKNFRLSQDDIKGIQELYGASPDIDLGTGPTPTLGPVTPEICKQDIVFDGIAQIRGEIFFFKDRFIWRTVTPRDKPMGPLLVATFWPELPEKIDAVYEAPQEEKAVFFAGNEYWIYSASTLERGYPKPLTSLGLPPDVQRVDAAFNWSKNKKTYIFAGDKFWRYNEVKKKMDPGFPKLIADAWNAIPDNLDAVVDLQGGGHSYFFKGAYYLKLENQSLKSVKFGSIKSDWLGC
Method: as §1

[8] = molecular target: MMP-3 (Homo sapiens, UniProt P08254); assay: Matrix metalloprotease panel, single concentration; format: biochemical
Chain of MMP-3 (P08254 100-477, species assumed): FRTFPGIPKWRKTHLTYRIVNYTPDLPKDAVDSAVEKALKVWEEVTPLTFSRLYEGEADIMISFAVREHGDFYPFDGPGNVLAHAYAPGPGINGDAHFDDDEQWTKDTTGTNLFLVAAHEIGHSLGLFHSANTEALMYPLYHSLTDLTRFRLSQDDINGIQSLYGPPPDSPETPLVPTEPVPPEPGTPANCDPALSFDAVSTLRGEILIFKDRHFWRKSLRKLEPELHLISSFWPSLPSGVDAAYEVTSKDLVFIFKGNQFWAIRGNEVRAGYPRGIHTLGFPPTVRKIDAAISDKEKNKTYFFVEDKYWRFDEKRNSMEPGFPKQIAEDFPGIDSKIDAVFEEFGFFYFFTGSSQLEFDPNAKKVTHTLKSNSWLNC
Method: as §1

[9] = molecular target: T3, MMP-7 (Homo sapiens, UniProt P09237); assay: Matrix metalloprotease panel, single concentration; format: biochemical
T3 sequence (P09237 95-267): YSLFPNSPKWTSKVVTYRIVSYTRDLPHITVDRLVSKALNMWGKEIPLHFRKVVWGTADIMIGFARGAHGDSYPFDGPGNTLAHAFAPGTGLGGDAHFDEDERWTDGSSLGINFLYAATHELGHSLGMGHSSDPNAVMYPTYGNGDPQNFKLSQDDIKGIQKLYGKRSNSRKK
Method: as §1

[10] = molecular target: MMP-8 (Homo sapiens, UniProt P22894); assay: Matrix metalloprotease panel, single concentration; format: biochemical
Chain of MMP-8 (P22894 101-467, species assumed): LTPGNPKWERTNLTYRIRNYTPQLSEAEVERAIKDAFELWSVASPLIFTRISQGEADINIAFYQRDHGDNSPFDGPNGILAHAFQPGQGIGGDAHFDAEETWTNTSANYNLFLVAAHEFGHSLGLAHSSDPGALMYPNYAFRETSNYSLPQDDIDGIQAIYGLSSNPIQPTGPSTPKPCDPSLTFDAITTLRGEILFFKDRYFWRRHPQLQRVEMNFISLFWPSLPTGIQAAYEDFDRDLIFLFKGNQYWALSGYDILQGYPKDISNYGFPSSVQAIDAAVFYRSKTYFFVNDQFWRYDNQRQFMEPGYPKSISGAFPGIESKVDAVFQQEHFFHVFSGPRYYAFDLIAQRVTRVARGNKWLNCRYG
Method: as §1

[11] = molecular target: MMP-9 (Homo sapiens, UniProt P14780); assay: Matrix metalloprotease panel, single concentration; format: biochemical
Chain of MMP-9 (P14780 94-707, species assumed): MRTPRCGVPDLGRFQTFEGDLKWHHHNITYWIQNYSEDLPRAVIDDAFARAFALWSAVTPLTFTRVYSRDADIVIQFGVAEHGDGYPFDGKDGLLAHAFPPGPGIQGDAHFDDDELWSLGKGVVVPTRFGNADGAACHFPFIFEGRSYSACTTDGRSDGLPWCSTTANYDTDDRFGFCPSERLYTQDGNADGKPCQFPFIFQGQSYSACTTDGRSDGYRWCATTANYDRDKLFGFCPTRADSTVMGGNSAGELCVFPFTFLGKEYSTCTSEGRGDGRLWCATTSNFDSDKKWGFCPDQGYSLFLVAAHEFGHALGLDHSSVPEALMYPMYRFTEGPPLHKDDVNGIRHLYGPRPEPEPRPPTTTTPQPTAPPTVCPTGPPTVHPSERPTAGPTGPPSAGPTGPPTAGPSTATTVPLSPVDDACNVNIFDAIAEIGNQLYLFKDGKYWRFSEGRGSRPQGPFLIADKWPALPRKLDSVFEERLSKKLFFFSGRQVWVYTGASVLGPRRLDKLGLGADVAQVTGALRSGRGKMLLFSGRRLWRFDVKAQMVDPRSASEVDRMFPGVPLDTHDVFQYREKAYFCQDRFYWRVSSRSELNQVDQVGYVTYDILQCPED
Method: as §1

[12] = molecular target: angiotensin converting enzyme (ACE) (Homo sapiens, UniProt P12821); assay: Matrix metalloprotease panel, single concentration; format: biochemical
Chain of angiotensin converting enzyme (ACE) (P12821 30-1306, species assumed): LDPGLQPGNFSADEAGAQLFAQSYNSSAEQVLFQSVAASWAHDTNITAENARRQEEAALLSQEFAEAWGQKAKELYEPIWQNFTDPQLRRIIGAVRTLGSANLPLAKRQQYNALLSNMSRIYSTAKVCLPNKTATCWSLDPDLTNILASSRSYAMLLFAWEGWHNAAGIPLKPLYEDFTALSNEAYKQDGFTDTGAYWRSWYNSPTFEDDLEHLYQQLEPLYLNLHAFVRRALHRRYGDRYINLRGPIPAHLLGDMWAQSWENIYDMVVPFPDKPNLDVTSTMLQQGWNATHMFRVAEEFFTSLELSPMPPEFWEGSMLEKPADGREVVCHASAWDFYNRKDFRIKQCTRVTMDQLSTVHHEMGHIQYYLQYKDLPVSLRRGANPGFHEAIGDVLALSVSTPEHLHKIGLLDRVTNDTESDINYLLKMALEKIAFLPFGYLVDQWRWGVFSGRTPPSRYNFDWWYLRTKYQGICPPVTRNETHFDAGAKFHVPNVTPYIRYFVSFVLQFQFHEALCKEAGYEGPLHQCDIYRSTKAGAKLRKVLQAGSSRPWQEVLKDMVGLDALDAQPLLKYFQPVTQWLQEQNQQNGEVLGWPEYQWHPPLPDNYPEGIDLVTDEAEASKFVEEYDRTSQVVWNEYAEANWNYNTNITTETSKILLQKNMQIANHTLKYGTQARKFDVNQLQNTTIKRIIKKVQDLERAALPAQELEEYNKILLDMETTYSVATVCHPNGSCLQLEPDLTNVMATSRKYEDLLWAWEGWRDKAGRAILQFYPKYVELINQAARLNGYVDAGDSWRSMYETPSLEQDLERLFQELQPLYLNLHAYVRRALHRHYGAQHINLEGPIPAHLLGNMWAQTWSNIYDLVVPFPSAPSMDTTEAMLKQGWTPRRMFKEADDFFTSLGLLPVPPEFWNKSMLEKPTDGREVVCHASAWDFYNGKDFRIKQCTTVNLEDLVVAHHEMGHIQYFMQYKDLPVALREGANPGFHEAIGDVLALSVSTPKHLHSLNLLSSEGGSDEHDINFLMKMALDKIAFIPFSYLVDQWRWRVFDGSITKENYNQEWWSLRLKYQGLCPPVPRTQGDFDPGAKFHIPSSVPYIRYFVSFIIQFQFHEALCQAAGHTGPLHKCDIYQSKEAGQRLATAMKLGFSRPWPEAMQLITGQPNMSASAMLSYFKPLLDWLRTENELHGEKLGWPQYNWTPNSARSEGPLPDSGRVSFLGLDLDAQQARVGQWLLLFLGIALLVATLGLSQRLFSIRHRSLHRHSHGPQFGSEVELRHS
Method: as §1

inhibition at 5 µM [2]	inhibition at 5 µM [3]	inhibition at 5 µM [4]	inhibition at 5 µM [5]	inhibition at 5 µM [6]	inhibition at 5 µM [7]	inhibition at 5 µM [8]	inhibition at 5 µM [9]	inhibition at 5 µM [10]	inhibition at 5 µM [11]	inhibition at 5 µM [12]	melting point	SMILES	Av. HDAC Inhibition, % @100 [1]
0%	0%	56%	24%	2%	19%	1%	0%	30%	19%	6%	–	O=C(CC1c2ccccc2S(=O)(=O)N1c1ccccc1)NO (stereo not shown) [IX-001]	10%@100
-4%	6%	37%	-12%	0%	10%	11%	-5%	21%	-2%	-8%	–	CC#CCOc1ccc(N2C(CC(=O)NO)c3ccccc3S2(=O)=O)cc1 (stereo not shown) [IX-045]	38%@100
6%	9%	49%	-10%	4%	-3%	34%	31%	13%	-8%	-4%	195 to 197 °C	Cc1cc(COc2ccc(N3C(CC(=O)NO)c4ccccc4S3(=O)=O)cc2)c2ccccc2n1 (stereo not shown) [IX-048]	19%@100
